Assay results as given in BigSolDB 2.1.

Details: in water

solubility (mole fraction) (285.15 K) | solubility (mole fraction) (292.15 K) | solubility (mole fraction) (298.15 K) | solubility (mole fraction) (306.15 K) | solubility (mole fraction) (313.15 K) | solubility (mole fraction) (320.15 K) | solubility (mole fraction) (327.15 K) | solubility (mole fraction) (333.15 K) | solubility (mole fraction) (339.15 K) | solubility (mole fraction) (344.15 K) | solubility (mole fraction) (348.15 K) | Structure (SMILES)
0.000774 | 0.000984 | 0.00141 | 0.00189 | 0.0026 | 0.00352 | 0.00467 | 0.00581 | 0.00713 | 0.00847 | 0.00955 | O=C(O)c1cccc([N+](=O)[O-])c1C(=O)O
0.087 | 0.103 | 0.117 | 0.137 | 0.153 | 0.172 | 0.188 | 0.2 | 0.211 | 0.218 | 0.222 | O=C(O)c1ccc([N+](=O)[O-])cc1C(=O)O
